Laboratory results as given in patent EP4361137A1, “PRUNE1 INHIBITORS AND THERAPEUTIC USE THEREOF” (CEINGE Biotecnologie Avanzate Franco Salvatore s.c. a r.l., priority 2022, dated 2024).

What was measured:
[1] = test system: MATH1-Prune1/TP53-/- cells; experiment: Real-time cell proliferation assay (cell index, xCELLigence); assay type: cell-based, murine; settings: impedance every 2 min over 24 h
Experimental: Primary murine TNBC cells from tumors generated by MMTV-Prune1/Wnt1 mice [Ferrucci et al., 2021] and Primary murine Medulloblastoma Group 3 cells from tumors generated MATH-Prune1/TP53-/- mice were obtained (2 months from tumor onset).
Cellular proliferation rates were determined with the xCELLigence system (Roche). D425-MED, MATH-Prune1/TP53-/- and MMTV-Prune1/Wnt1 cells (8 × 10^3) were treated with increasing concentrations of LEO-AA7.5(S)T, harvested, and then added to a single well of an xCELLigence E-plate 16. The proliferation rates were determined at 2-min intervals by measuring the impedance changes across the electrodes at the bottoms of the wells. These cell index values were calculated by the xCELLigence RTCA software. with vehicle-treated cells were the negative control. Impedance was measured every 2 min over 24 hours. The IC50 values were calculated through nonlinear regression analysis performed with Graph Pad Prism 9 ([inhibitor] vs. response (three parameters). Data are means ± SD of three independent experiments.

human PRUNE1 = experiment: qPCR of PRUNE1 mRNA in D425-MED cells; assay type: cell-based; settings: 10 µM, 24 hours, relative to vehicle (2^-ΔΔCt)
Experimental: D425.MED and MMTV-Prune1/Wnt1 cells were plated and treated with increasing concentrations of LEO-AA7.5(S)T for 24 hours. Water-treated cells were used as negative control for the experiments.
RNA samples were extracted using TRIzol RNA Isolation Reagent (15596026, Invitrogen), according to the manufacturer instructions. Reverse transcription was performed with 5× All-In-One RT MasterMix (g592; ABM), according to the manufacturer instructions. The reverse transcription products (cDNA) were amplified by qRT-PCR using an RT-PCR system (7900; Applied Biosystems, Foster City, CA, USA). The cDNA preparation was through the cycling method, by incubating the complete reaction mix as follows: cDNA reactions: (37 °C for 10 min and 60 °C for 15 min); Heat-inactivation: 95 °C for 3 min; Hold stage: 4 °C. The targets were detected with the SYBR green approach, using BrightGreen BlasTaq 2× PCR MasterMix (G895; ABM). Human ACTB was used as the housekeeping gene to normalize the quantification cycle (Cq) values of the other genes. […] Relative expression of the target genes was determined using the 2^-ΔΔCq method, as the fold increase compared with the controls. […]

CD4+/ CD8+ T cells = experiment: Tconv to Treg conversion of T cells grown in conditioned media (immunofluorescence CD4/FOXP3); assay type: cell-based, FVB mice
Experimental: The isolation of untouched mouse CD4+/ CD8+ T cells from single-cell suspensions from spleen of n.2 naive FVB mice were performed by using Pan T Cell Isolation Kit II, mouse (130-095-130, Miltenyi biotec), according to the manufacturer instruction. Once isolated, T cells were grown for 48 hours in the conditioned media previously collected for 24 hours from pooled vehicle- or 10 µM LEO-AA7.5(S)T-treated MATH1-Prune1/TP53-/- cells.
T cells grown for 48 hours in conditioned media collected from vehicle- or LEO-AA7.5(S)T-treated MATH1-Prune1/TP53-/- cells were fixed in 4% paraformaldehyde in phosphate-buffered saline (PBS) for 30 min, washed three times with PBS, and permeabilized for 15 min with 0.1% Triton X-100 (215680010; Acros Organics) diluted in PBS. The cells were then blocked with 3% bovine serum albumin (A9418; Sigma) in PBS for 1 h at room temperature. The samples were incubated with the appropriate primary antibodies overnight at 4 °C: anti-FOXP3 (1:2000; ab54501; Abcam); anti-CD4 (1:100; sc-19641, SantaCruz). After washing with PBS, the samples were incubated with the secondary antibody at room temperature for 1 h, as anti-mouse Alexa Fluor 488 (1:200; ab 150113; Abcam) or anti-rabbit Alexa Fluor 546 (1:200; Abcam). DNA was stained with DAPI (1:1000; #62254, Thermo Fisher). The slides were washed and mounted with cover slips with 50% glycerol (G5150; Sigma-Aldrich). […]

## COc1ccc(CNc2ncnc(N3CCC[C@H](CO)C3)n2)cc1.Cl [LEO-AA7.5(S)T, (S)-(1-(4-((4-methoxybenzyl)amino)-1,3,5-triazin-2-yl)piperidin-3-yl)methanol HCl salt]
[1]
  half maximal inhibitory concentration (IC50) for the inhibition of cell proliferation index: 31.1 µM
Human PRUNE1
  endogenous Prune1 mRNA: 0.3 fold
CD4+/ CD8+ T cells; T cells 48 hours in conditioned media of cells treated with 10 µM for 24 hours, vs vehicle conditioned media
  percentage of Tregs (CD4+FOXP3+) among T cells: decrease
CD4+/ CD8+ T cells; ex vivo, 10 µM vs 100 µM AA7.1
  inhibition of the conversion from Tconv to Treg cells, compared with 100 µM AA7.1: comparable
